Counter-ions that a name gives are not always drawn. Like-named read-outs stand apart in the source and are kept apart here.
How the values were obtained:
Rat FAAH = target: T1, Rat FAAH (Rattus norvegicus, UniProt P97612); assay: Assay Method 2: rat FAAH assay (3H-anandamide hydrolysis in cell homogenate); assay type: biochemical
T1 construct: expressed in transfected cells; host or cells: SK-N-MC cells stably transfected with rat FAAH cDNA (G418 selection)
T1 sequence (P97612 1-579): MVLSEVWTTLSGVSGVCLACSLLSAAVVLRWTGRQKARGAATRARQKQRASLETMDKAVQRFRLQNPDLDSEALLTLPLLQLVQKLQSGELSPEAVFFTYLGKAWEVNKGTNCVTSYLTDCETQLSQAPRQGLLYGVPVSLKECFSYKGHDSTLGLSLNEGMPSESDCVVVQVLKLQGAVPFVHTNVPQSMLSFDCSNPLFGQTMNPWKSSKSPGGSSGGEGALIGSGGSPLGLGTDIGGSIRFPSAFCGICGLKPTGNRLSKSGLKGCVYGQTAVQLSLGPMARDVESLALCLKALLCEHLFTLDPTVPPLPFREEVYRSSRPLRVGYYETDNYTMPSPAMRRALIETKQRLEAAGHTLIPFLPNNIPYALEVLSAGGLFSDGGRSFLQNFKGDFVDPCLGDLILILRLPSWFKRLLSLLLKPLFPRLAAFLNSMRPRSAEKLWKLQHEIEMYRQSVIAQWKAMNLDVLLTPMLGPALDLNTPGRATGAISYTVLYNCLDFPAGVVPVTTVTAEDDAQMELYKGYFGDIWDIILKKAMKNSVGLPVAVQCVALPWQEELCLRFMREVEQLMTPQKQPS
Summary of the method: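 Homogenates of T84 cells or SK-N-MC cells stably transfected with rat FAAH, in pH 9 Tris/EDTA/glycerol/Triton buffer, incubated 1 h at room temperature with 3H-anandamide. Released labeled ethanolamine separated from substrate on activated charcoal and counted by scintillation; values averaged over runs.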

FAAH = target: T2, FAAH (Homo sapiens, UniProt O00519); assay: Assay Method 1: human FAAH assay (3H-anandamide hydrolysis in cell homogenate); assay type: biochemical; parameters: expressed in transfected cells; host or cells: SK-N-MC cells stably transfected with human FAAH cDNA (G418 selection); alternatively T84 cell pellets
T2 sequence (O00519 1-579): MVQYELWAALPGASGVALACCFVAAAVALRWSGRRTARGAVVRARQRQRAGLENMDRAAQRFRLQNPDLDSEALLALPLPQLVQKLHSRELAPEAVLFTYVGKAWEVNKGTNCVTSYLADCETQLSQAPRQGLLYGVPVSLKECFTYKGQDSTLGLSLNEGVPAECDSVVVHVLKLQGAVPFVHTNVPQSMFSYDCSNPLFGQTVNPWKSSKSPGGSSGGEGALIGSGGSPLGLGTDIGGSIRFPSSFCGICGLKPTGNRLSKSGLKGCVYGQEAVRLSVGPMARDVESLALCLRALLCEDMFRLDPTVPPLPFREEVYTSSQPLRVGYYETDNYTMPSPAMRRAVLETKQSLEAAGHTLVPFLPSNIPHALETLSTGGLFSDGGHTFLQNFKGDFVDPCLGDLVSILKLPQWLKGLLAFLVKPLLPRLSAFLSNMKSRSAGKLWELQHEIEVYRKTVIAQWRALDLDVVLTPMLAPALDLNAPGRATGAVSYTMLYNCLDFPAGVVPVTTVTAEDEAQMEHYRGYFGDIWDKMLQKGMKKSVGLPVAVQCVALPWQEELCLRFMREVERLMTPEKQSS
Summary of the method: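 Homogenates of T84 cells or SK-N-MC cells stably transfected with human FAAH, in pH 9 Tris/EDTA buffer with 0.02% Triton X-100. Incubated 1 h at rt with compound and 80 nM (final) [3H-ethanolamine]-anandamide. Released 3H-ethanolamine separated on charcoal filters and counted by scintillation.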

IC50 (Rat FAAH; read-out: Assay 2 IC50) [nM]	IC50 (FAAH; read-out: Assay 1 IC50) [nM]	Compound	IC50 (Rat FAAH) [nM]	IC50 (FAAH) [nM]
6930	6930	O=C(Nc1ccc(N2CCOCC2)nc1)N1CC2(CCN(Cc3cccc(Oc4ccc(Cl)cc4)c3)CC2)C1 [Example 55, 7-[3-(4-Chloro-phenoxy)-benzyl]-2,7-diaza-spiro[3.5]nonane-2-carboxylic acid (6-morpholin-4-yl-pyridin-3-yl)-amide, trifluoroacetic acid salt]	–	–
200	260	O=C(Nc1cncc(Cl)c1)N1CC2(CCN(Cc3cccc(Oc4ccc(Cl)cc4)c3)CC2)C1 [Example 57, 7-[3-(4-Chloro-phenoxy)-benzyl]-2,7-diaza-spiro[3.5]nonane-2-carboxylic acid (5-chloro-pyridin-3-yl)-amide, trifluoroacetic acid salt]	–	–
690	300	O=C(Nc1ccc(F)nc1)N1CC2(CCN(Cc3cccc(Oc4ccc(Cl)cc4)c3)CC2)C1 [Example 58, 7-[3-(4-Chloro-phenoxy)-benzyl]-2,7-diaza-spiro[3.5]nonane-2-carboxylic acid (6-fluoro-pyridin-3-yl)-amide, trifluoroacetic acid salt]	–	–
80	250	COc1cc(NC(=O)N2CC3(CCN(Cc4cccc(Oc5ccc(Cl)cc5)c4)CC3)C2)ncn1 [Example 59, 7-[3-(4-Chloro-phenoxy)-benzyl]-2,7-diaza-spiro[3.5]nonane-2-carboxylic acid (6-methoxy-pyrimidin-4-yl)-amide, trifluoroacetic acid salt]	–	–
120	300	O=C(Nc1ccc(Cl)nn1)N1CC2(CCN(Cc3cccc(Oc4ccc(Cl)cc4)c3)CC2)C1 [Example 60, 7-[3-(4-Chloro-phenoxy)-benzyl]-2,7-diaza-spiro[3.5]nonane-2-carboxylic acid (6-chloro-pyridazin-3-yl)-amide, trifluoroacetic acid salt]	–	–
> 10000	> 10000	Cc1cc(NC(=O)N2CC3(CCN(Cc4cccc(Oc5ccc(Cl)cc5)c4)CC3)C2)nn1C [Example 61, 7-[3-(4-Chloro-phenoxy)-benzyl]-2,7-diaza-spiro[3.5]nonane-2-carboxylic acid (1,5-dimethyl-1H-pyrazol-3-yl)-amide, trifluoroacetic acid salt]	–	–
> 10000	> 10000	Cn1cc(Br)c(NC(=O)N2CC3(CCN(Cc4cccc(Oc5ccc(Cl)cc5)c4)CC3)C2)n1 [Example 62, 7-[3-(4-Chloro-phenoxy)-benzyl]-2,7-diaza-spiro[3.5]nonane-2-carboxylic acid (4-bromo-1-methyl-1H-pyrazol-3-yl)-amide, trifluoroacetic acid salt]	–	–
500	1450	CCn1nccc1NC(=O)N1CC2(CCN(Cc3cccc(Oc4ccc(Cl)cc4)c3)CC2)C1 [Example 63, 7-[3-(4-Chloro-phenoxy)-benzyl]-2,7-diaza-spiro[3.5]nonane-2-carboxylic acid (2-ethyl-2H-pyrazol-3-yl)-amide, trifluoroacetic acid salt]	–	–
1060	240	Cc1nc2cc(NC(=O)N3CC4(CCN(Cc5cccc(Oc6ccc(Cl)cc6)c5)CC4)C3)ccc2o1 [Example 65, 7-[3-(4-Chloro-phenoxy)-benzyl]-2,7-diaza-spiro[3.5]nonane-2-carboxylic acid (2-methyl-benzooxazol-5-yl)-amide]	–	–

Compound	IC50 (Rat FAAH; read-out: Assay 2 IC50) [nM]	IC50 (FAAH; read-out: Assay 1 IC50) [nM]	IC50 (Rat FAAH) [nM]	IC50 (FAAH) [nM]
O=C(Nc1cc[nH]n1)N1CC2(CCN(Cc3cccc(Oc4ccc(Cl)cc4)c3)CC2)C1 [Example 56, 7-[3-(4-Chloro-phenoxy)-benzyl]-2,7-diaza-spiro[3.5]nonane-2-carboxylic acid (1H-pyrazol-3-yl)-amide, trifluoroacetic acid salt]	–	3690	1670	–
O=C(Nc1nnn[nH]1)N1CC2(CCN(Cc3cccc(Oc4ccc(Cl)cc4)c3)CC2)C1 [Example 64, 7-[3-(4-Chloro-phenoxy)-benzyl]-2,7-diaza-spiro[3.5]nonane-2-carboxylic acid (2H-tetrazol-5-yl)-amide, trifluoroacetic acid salt]	60	–	–	3160
